Each structure is given as a SMILES string.

The target of this experiment is Mitogen-activated protein kinase kinase kinase kinase 1 (Homo sapiens, UniProt Q92918). Put plainly: Inhibition of human full length recombinant HPK1 using 5FAM-AKRRRLSSLRACOOH as substrate preincubated for 20 mins and measured for 60 mins by microfluidic mobility shift assay.
Chain of Mitogen-activated protein kinase kinase kinase kinase 1 (Q92918 whole entry): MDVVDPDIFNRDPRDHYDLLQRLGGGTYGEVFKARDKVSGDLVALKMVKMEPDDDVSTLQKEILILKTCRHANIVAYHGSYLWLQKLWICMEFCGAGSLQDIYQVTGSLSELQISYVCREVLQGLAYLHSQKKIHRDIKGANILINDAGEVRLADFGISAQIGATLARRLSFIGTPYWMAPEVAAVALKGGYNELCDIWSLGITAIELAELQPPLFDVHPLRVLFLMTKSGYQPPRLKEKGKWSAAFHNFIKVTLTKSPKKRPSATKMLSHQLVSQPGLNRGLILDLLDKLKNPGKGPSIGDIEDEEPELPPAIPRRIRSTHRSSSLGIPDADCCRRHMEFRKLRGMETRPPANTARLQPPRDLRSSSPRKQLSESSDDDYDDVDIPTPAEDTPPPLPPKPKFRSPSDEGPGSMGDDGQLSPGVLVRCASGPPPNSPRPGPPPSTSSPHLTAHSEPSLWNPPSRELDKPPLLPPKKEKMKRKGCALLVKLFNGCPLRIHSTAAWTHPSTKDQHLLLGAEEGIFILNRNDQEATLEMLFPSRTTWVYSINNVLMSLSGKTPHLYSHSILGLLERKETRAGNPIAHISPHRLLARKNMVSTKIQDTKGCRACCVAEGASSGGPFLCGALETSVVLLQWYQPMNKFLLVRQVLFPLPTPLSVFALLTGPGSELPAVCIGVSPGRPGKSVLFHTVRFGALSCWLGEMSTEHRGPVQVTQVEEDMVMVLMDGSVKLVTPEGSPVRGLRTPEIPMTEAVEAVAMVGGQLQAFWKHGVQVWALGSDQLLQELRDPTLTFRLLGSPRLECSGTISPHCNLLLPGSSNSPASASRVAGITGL
The term Ki denotes a dissociation constant, usually derived from enzyme kinetics or from competition with a known ligand. On to `CNCc1cc(OC)cc2c1CN(c1cccc(-c3nncn3[C@@H](C)C3CC3)n1)C2=O`, for which the inhibition constant Ki stood at 0.2 nM.
Next, `COc1cc2c(c(S(N)(=O)=O)c1)CN(c1cccc(-c3nncn3C(C)C)n1)C2=O`: 0.4 nM; `CC[C@H](C)n1cnnc1-c1cccc(N2Cc3c(CNC)cc(N4CCCC4)cc3C2=O)n1`: 0.3 nM; `COc1cc(CN)c2c(c1)C(=O)N(c1cccc(-c3nncn3[C@@H](C)CC(F)(F)F)n1)C2`: 0.3 nM.
To `CC[C@@H](CC(F)(F)F)n1cnnc1-c1cccc(N2Cc3c(CNC)cc(OC)cc3C2=O)n1` belongs 0.4 nM.
To `CC[C@H](C)n1cnnc1-c1cccc(N2Cc3c(CNC)cc(N(C)C)cc3C2=O)n1` belongs 0.4 nM.
